Positions of bridges follow the written chain, without caps; N, C: chain ends. Non-standard residues stand in square brackets, D forms with d. Residues, ends and D or L forms follow the SMILES beside them. *: point of attachment. Heptanoyl(6-Me) = CC(C)CCCCC(=O)*; Dab = NCC[C@H](N)C(=O)O
Key:
[1] = tested on: E. coli K12; assay: Infection assay in human plasma (CFU test, PMN/E. coli co-culture); format: cell-based, Escherichia coli; settings: 10 μM, human blood plasma, bacteria:PMN 16:1, 1 h, 37 °C
Experimental: (§1) Figure 5 Cellular proof of concept for triggered antibiotic release from 6. a) Release of neutrophil elastase (NE) from neutrophil granulocytes. PMN were isolated and suspended in RPMI 1640. For activation, 0.1 μM fMLP was added. The samples were incubated for 1 h at 37 °C, centrifuged to remove cells, and the NE concentration was determined in the supernatant by ELISA. Values normalized to 1×10^6 cells mL^−1. Data are presented as the mean of 4 separate experiments. *p<0.03 compared to unactivated. b) Activity of NE after co‐cultivation of PMN with E. coli K12 in presence of 1 or 6. […] After 1 h colistin concentrations were determined by HPLC–MS. […]
(§2) Calculation of results: All samples and standards were measured in duplicate. The standard curve was constructed by plotting the mean absorbance for each standard on the y-axis against the concentration on the x-axis. A linear regression analysis was performed and the results for the samples were calculated. […]
(§3) on. […] The plate was incubated in a microplate reader for 60 min at 37 °C with shaking for 5 sec at 50 rpm once per minute.
(§4) Every minute readings were taken at 410 nm. For the calculation of the cleavage velocity, the difference in absorbance after an initialization phase at 15 min and a further incubation time of 30 min was used and related to total cleavage of the substrate. The blank was subtracted from the readings. […]

[2] = biological target: T1, neutrophil elastase (NE) (Homo sapiens, UniProt P08246); assay: Activity of NE in co-cultivation of PMN with E. coli K12 (MeOSuc-AAPV-pNA cleavage); format: cell-based; settings: 10 μM; PMN co-cultivated with E. coli K12, 1 h, 37 °C, RPMI 1640/HEPES-NaCl 1:1; mean of two experiments
T1 construct: Activity of NE after co‐cultivation of PMN with E. coli K12 in presence of 1 or 6; endogenous in cells; host or cells: primary human PMN isolated from fresh venous whole blood of healthy volunteers, co-cultivated with E. coli K12
T1 sequence (P08246 30-267): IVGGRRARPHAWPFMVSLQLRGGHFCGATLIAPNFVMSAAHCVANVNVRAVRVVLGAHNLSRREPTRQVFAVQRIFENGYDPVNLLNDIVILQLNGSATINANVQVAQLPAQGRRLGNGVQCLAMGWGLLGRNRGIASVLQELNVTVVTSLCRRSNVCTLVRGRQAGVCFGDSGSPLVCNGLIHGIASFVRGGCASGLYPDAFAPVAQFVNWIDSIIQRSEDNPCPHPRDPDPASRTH
Experimental: as §1, §2, §3, §4

## CC(C)CCCCC(=O)N[C@@H](CCN)C(=O)N[C@H](C(=O)N[C@@H](CCN)C(=O)N[C@H]1CCNC(=O)[C@H]([C@@H](C)O)NC(=O)[C@H](CCN)NC(=O)[C@H](CCN)NC(=O)[C@H](CC(C)C)NC(=O)[C@@H](CC(C)C)NC(=O)[C@H](CCN)NC1=O)[C@@H](C)O [Compound 1, colistin B, reference compound] ({Heptanoyl(6-Me)}-[Dab]T[Dab][Dab][Dab][dL]L[Dab][Dab]T; lactam 4-C)
[1]
  effect on bacterial growth: abolished growth completely
[2]
  enhancing effect on the activity of NE: 2.3–2.5 fold

Reference: paper PMC8456958, “Selective Bacterial Targeting and Infection‐Triggered Release of Antibiotic Colistin Conjugates” (Angewandte Chemie (International Ed. in English), 2021)
